Literature values as cited in US11291673B2, “Topical doxycycline hydrogel with improved long-term stability” (Nanopharmaceutics, Inc., priority 2019, dated 2022).
Values belong to the compound of their own block, whether it stands above or below them.

Tests used:
[1] = system: experimental dry eye (EDE) model
[2] = system: mastitis; conditions: homogeneous suspension applied to the udder of a cow
[3] = compared to aqueous suspensions containing amphoteric dioxytetracycline

Compound: C[C@H]1c2cccc(O)c2C(O)=C2C(=O)[C@]3(O)C(O)=C(C(N)=O)C(=O)[C@H](N(C)C)[C@@H]3[C@@H](O)[C@@H]21 [4-epidoxycycline]
- anti-inflammatory and anti-proteolytic effects [1]: lack of anti-inflammatory and anti-proteolytic effects

Compound: C[C@@H]1c2cccc(O)c2C(O)=C2C(=O)[C@]3(O)C(O)=C(C(N)=O)C(=O)[C@@H](N(C)C)[C@@H]3[C@@H](O)[C@@H]21 [6-epidoxycycline]
- anti-inflammatory and anti-proteolytic effects [1]: lack of anti-inflammatory and anti-proteolytic effects

- aqueous solubility (pHs above 6): < 800 µg/mL
Compound: C[C@H]1c2cccc(O)c2C(=O)C2=C(O)[C@]3(O)C(=O)C(C(N)=O)=C(O)[C@@H](N(C)C)[C@@H]3[C@@H](O)[C@@H]21 [Doxycycline monohydrate]

- solubility (neutral pH): less than 10 mg/ml
Compound: C[C@H]1c2cccc(O)c2C(=O)C2=C(O)[C@]3(O)C(=O)C(C(N)=O)=C(O)[C@@H](N(C)C)[C@@H]3[C@@H](O)[C@@H]21 [Doxycycline]

- stability of suspension [3]: superior stability
Compound: calcium dioxytetracycline
- alleviation of mastitis [2]: rapid and complete alleviation of mastitis
